Laboratory results published in US20080167201A1, “Method For Synthesizing Derivative, Compound Library and Method For Constructing the Same, and Method For Screening” (priority 2004, published 2008).

How the values were obtained:
[1] = test system: HT-29 cells derived from human colon cancer; assay: ATP synthesis (ATP content by luciferase luciferin) in HT-29 cells; format: cell-based; conditions: 3 hr incubation, same concentration range as inhibits cell migration (FIG. 5)
Experimental: 1 ml of suspension of HT-29 cells derived from human colon cancer (4×10^5 cells/ml; RPMI1640 medium) was added to each well of a 24-well plate and incubated at 37° C. for 24 hr. Then, migrastatin or oxidized migrastatin was added thereto and incubated for 3 hr. In addition, a cultured broth to which migrastatin and oxidized migrastatin were not added was similarly incubated as a control. After the incubation, each well was washed twice with ice-cooled PBS^−. After an addition of 200 μl of 2% trichloroacetic acid, the plate was left at 4° C. for 30 min. The supernatant (160 μl) was neutralized with 36.8 μl of 0.5 N NaOH and used as a sample. This sample (160 μl) was added to 3 ml of PBS^− containing 4 mM MgCl2. Then, 40 μl of 4 mg/ml luciferase luciferin (Sigma) was added thereto and immediately the ATP content was measured with a single-photon monitor of a scintillation counter (LS-5000TD: BECKMAN COULTER). In addition, the ATP content under the conditions where the sample and luciferase luciferin were not added was measured as a blank value and was subtracted from each measurement value.

[2] = test system: EC17 cells derived from human esophageal cancer; assay: cell migration inhibition, scratch assay with EC17 cells; format: cell-based; conditions: compound added immediately after scratching, 24 hr incubation, microscopic observation (FIG. 4)
Experimental: 500 μl of suspension of EC17 cells derived from human esophageal cancer (1.5×10^5 cells/ml; RPMI1640 medium (Nissui)) was added to each well of a 48-well plate and incubated at 37° C. for 24 hr. Then, the cells were linearly scraped off by scratching the center of the bottom of each well in a straight line with a micropipette tip. Then, the supernatant of the culture broth was immediately removed. The well was washed with 300 μl of PBS^− (8 g/l NaCl, 0.2 g/l KCl, 0.916 g/l Na2HPO4, 0.2 g/l KH2PO4) carefully not to scrape the remaining cells, and 500 μl of a RPMI1640 medium containing 1% serum (FBS; manufactured by Tissue Culture Biologicals) was gently added to the well. Further, migrastatin or oxidized migrastatin was added thereto and incubated at 37° C. for 24 hr. In addition, a culture broth to which migrastatin and oxidized migrastatin were not added was similarly incubated as a control. After the incubation, how much the straight line formed with the micropipette tip was filled with cells which had migrated from surroundings was confirmed by microscopic observation to evaluate migration of the cells.

In the case of `CO[C@H]1/C=C/CC/C=C/C(=O)O[C@H]([C@H](C)C(=O)CCCC2CC(=O)NC(=O)C2)/C(C)=C\[C@@H](C)C1=O` [oxidized migrastatin, migrastatin oxide], the “inhibition of ATP synthesis” value [1] is reported as “did not inhibit ATP synthesis at all” and the “inhibition of migration of cells over the concentration range” value [2] is reported as “inhibition effect was observed at almost the same concentration range”.

In the case of `CO[C@H]1/C=C/CC/C=C/C(=O)O[C@H]([C@H](C)C(=O)CCCC2CC(=O)NC(=O)C2)/C(C)=C\[C@@H](C)[C@@H]1O` [migrastatin], the “inhibition of ATP synthesis” value [1] is reported as “inhibited ATP synthesis”, the migration of cells ([2]; concentration of 30 μl/ml) is reported as “completely inhibited” and the “inhibition of migration of cells over the concentration range” value [2] is reported as “inhibited depending on the concentration of migrastatin”.
